In patent US4691017A, “2-hydroxy-and 2-halo-ethylthiopyridine intermediates for preparing antiulcer compounds” (Richter Gedeon Vegyeszeti Gyar Rt., priority 1984, dated 1987):
Counter-ions that a name gives are not always drawn. Like-named read-outs stand apart in the source and are kept apart here.

What was measured:
[1] = tested on: Gastric necrosis (gastric oedema and haemorrhagic injury); test: Gastric necrosis induced by acidic ethanol (cytoprotective activity); assay type: in vivo, Female RG-Wistar rats; conditions: for ED50: Rattus norvegicus, po, 1 h, acidic ethanol, p.o.
Description: Water was given ad libitum. […] One hour later the animals were killed by overdosing with ether. Stomachs were removed and opened along the major curvature. After cleaning the wet weight of the stomachs was determined, and the difference between the wet weight obtained and the wet weight of the stomachs of untreated (control) animals was calculated, in order to determine the degree of gastric oedema. The stomachs were then dried and the gastic lesions were observed visually. Lengths of lesions were measured in millimeters. (Derelanko and Long, Proc. Soc. Exp. Biol. and Med. 166, 394 (1981)), and the length of the average lesions per stomach was given. Degree of cytoprotection was expressed in % related to the control. The statistical evaluation of the results was carried out by the Student test.

[2] = tested on: Aspirin-induced gastric ulceration; test: Inhibition of aspirin-induced gastric ulceration; assay type: in vivo, Female H. Wistar rats
Description: Inhibition of aspirin-induced gastric ulceration
Female H. Wistar rats weighing 120 to 150 g each were fasted for 24 hours. Water was given ad libitum. The stomach ulcer was induced by oral administration of aspirin in a dose of 100 mg./kg. (in Tween 80 suspension). The test was given simultaneously with the administration of aspirin, orally. The animals were killed by overdose if ether, 4 hours after treatment. The stomach was excised and cut along the large curvature. The red-brownish erosions on the glandular surface were counted. When evaluating the test results, the number of ulcers per stomach and its proportion to the number of ulcers found in the stomachs of control animals (inhibition of ulceration) were determined.

Antral ulcer = test: Indomethacin-induced antral ulceration; assay type: in vivo, Female RG-Wistar rats
Description: Indomethacin-induced antral and intestinal ulceration
Female RG-Wistar rats weighing 120 to 150 g. each were fasted for 24 hours. Water was added ad libitum. The animals were then given access to food for one hour, and 30 minutes after the administration of the test compounds a 15-mg./kg. oral dose of indomethacin was administered. 24 hours after indomethacin treatment the animals were killed by overdose of ether. Stomachs and the entire intestine were removed, the stomachs were opened along the main curvature, and the total ulcerated area (ulceration index, mm^2) was determined.

Intestinal ulcer = test: Indomethacin-induced intestinal ulceration (inflation technique); assay type: in vivo, Female RG-Wistar rats
Gastric acid secretion = Gastric acid secretion inhibiting activity on Shay rats; assay type: in vivo, Female H-Wistar rats
Description: Gastric acid secretion inhibiting activity on Shay rats (Gastroenterology, 5, 43-46 (1945)
Female H-Wistar rats weighing 120-150 g each were fasted for 24 hours. Water was added ad libitum. The pylorus of the animals was ligated under light ether narcosis. The test drugs were administered during the operation, partially orally, partially intraperitoneally. 4 hours after treatment the animals were killed by an overdose of ether. The stomach was excised and cut along the large curvature. The volume and the pH of the contents were determined and in each case the HCl production was determined by titration.

[3] = read-out: Gastric oedema inhibition ED50
[4] = read-out: Haemorrhagic injury inhibition ED50
[5] = indomethacin 15 mg./kg. p.o. with 5 mg./kg. p.o. test compound
[6] = indomethacin 15 mg./kg. p.o. with 25 mg./kg. p.o. test compound
[7] = indomethacin 15 mg./kg. p.o. with 25 mg./kg. p.o. test compound, N 20
[8] = indomethacin 15 mg./kg. p.o. with 50 mg./kg. p.o. test compound

CC(=O)N(CCSc1ncccc1C(=O)c1ccccc1)C(C)=O [B, 3-benzoyl-2-{[2-(N,N-diacetylamino)-ethyl]-thio}-pyridine]
ED50 [1, 3]: 1 mg/kg | ED50 [1, 4]: 2 mg/kg

NCCSc1ncccc1C(=O)c1ccc(Cl)cc1 [C, 2-[(2-aminoethyl)-thio]-3-(p-chlorobenzoyl)-pyridine.HCl]
ED50 [1, 3]: 10 mg/kg | ED50 [1, 4]: 15 mg/kg

NCCSc1ncccc1C(=O)c1ccccc1 [Compound A, 2-[(2-aminoethyl)-thio]-3-benzoyl-pyridine.HCl]
Haemorrhagic injury ([1]; 0.05 mg./kg. p.o.): 48 ± 19 mm | Haemorrhagic injury inhibition ([1]; 0.05 mg./kg. p.o.): 45% | Oedema inhibition ([1]; 0.05 mg./kg. p.o.): 19% | Oedema ([1]; 0.05 mg./kg. p.o., N 8): 307 ± 42 mg | Haemorrhagic injury ([1]; 0.1 mg./kg. p.o.): 38 ± 18 mm | Oedema ([1]; 0.1 mg./kg. p.o., N 10): 209 ± 51 mg | Haemorrhagic injury inhibition ([1]; 0.1 mg./kg. p.o., p < 0.05): 56% | Oedema inhibition ([1]; 0.1 mg./kg. p.o., p < 0.05): 45% | Haemorrhagic injury ([1]; 1.0 mg./kg. p.o.): 5 ± 1.5 mm | Oedema ([1]; 1.0 mg./kg. p.o., N 12): 72 ± 28 mg | Haemorrhagic injury inhibition ([1]; 1.0 mg./kg. p.o., p < 0.01): 96% | Haemorrhagic injury ([1]; 10.0 mg./kg. p.o.): 6 ± 3 mm | Oedema ([1]; 10.0 mg./kg. p.o., N 12): 22 ± 12 mg | Haemorrhagic injury inhibition ([1]; 10.0 mg./kg. p.o., p < 0.01): 94% | Oedema inhibition ([1]; 10.0 mg./kg. p.o., p < 0.01): 95% | ED50 [1, 3]: 0.2 mg/kg | ED50 [1, 4]: 0.1 mg/kg | gastrocytoprotective activity after indomethacin pre-treatment ([1]; indomethacin pre-treatment): not eliminated by indomethacin pre-treatment | gastrocytoprotective activity, selectivity in words ([1]; versus gastric acid secretion inhibition): selective gastrocytoprotective activity | Inhibition (of ulceration) ([2]; aspirin 100 + test compound 1 mg./kg.p.o.): 38% | Ulcer/Stomach ([2]; aspirin 100 + test compound 1 mg./kg.p.o., N 20): 9.4 + 4.1 | Inhibition (of ulceration) ([2]; aspirin 100 + test compound 2 mg./kg.p.o.): 47% | Ulcer/Stomach ([2]; aspirin 100 + test compound 2 mg./kg.p.o., N 10): 8.0 + 3.0 | Inhibition (of ulceration) ([2]; aspirin 100 + test compound 10 mg./kg.p.o.): 76% | Ulcer/Stomach ([2]; aspirin 100 + test compound 10 mg./kg.p.o., N 10): 3.7 + 4.5 | Antral ulcer, ulceration index (Antral ulcer; [5]): 18.9 mm^2 /stomach | Antral ulcer, rats having no ulcer (Antral ulcer; indomethacin 15 mg./kg. p.o. with 5 mg./kg. p.o. test compound, N 15): 3 | Antral ulcer, ulceration index (Antral ulcer; [6]): 4.0 mm^2 /stomach | Antral ulcer, rats having no ulcer (Antral ulcer; [7]): 12 | Intestinal ulcer, tensile strength 24 hours after indomethacin treatment (Intestinal ulcer; [5]): 162 ± 14 mmHg | Intestinal ulcer, tensile strength 24 hours after indomethacin treatment (Intestinal ulcer; [6]): 198 ± 9 mmHg | Secretion HCl inhibition (Gastric acid secretion; 5 mg./kg. p.o.): 37% | Secretion HCl/4 hours (Gastric acid secretion; 5 mg./kg. p.o., N 5): 357 ± 35 μmol/100 g body weight | Secretion HCl inhibition (Gastric acid secretion; 6 mg./kg. i.p.): 11% | Secretion HCl/4 hours (Gastric acid secretion; 6 mg./kg. i.p., N 5): 505 ± 29 μmol/100 g body weight | Secretion HCl inhibition (Gastric acid secretion; 10 mg./kg. p.o.): 38% | Secretion HCl/4 hours (Gastric acid secretion; 10 mg./kg. p.o., N 15): 350 ± 38 μmol/100 g body weight | Secretion HCl/4 hours (Gastric acid secretion; 12 mg./kg. i.p., N 10): 200 ± 30 μmol/100 g body weight | Secretion HCl inhibition (Gastric acid secretion; 12 mg./kg. i.p., p < 0.01): 65% | Secretion HCl inhibition (Gastric acid secretion; 20 mg./kg. p.o.): 34% | Secretion HCl/4 hours (Gastric acid secretion; 20 mg./kg. p.o., N 15): 372 ± 40 μmol/100 g body weight | Secretion HCl inhibition (Gastric acid secretion; 25 mg./kg. i.p.): 100% | Secretion HCl/4 hours (Gastric acid secretion; 25 mg./kg. i.p., N 5): 0 μmol/100 g body weight | Secretion HCl/4 hours (Gastric acid secretion; 40 mg./kg. p.o., N 5): 124 ± 27 μmol/100 g body weight | Secretion HCl inhibition (Gastric acid secretion; 40 mg./kg. p.o., p < 0.01): 70% | higher dose at which gastric acid secretion inhibiting activity was observed (relative to gastrocytoprotective dose) (Gastric acid secretion; selectivity of cytoprotection over acid secretion inhibition): about 500 times

CCCc1cc(C(=O)c2ccccc2)cc(SCCN)n1 [Compound E, 2-[(2-aminoethyl)-thio]-4-benzoyl-6-propylpyridine.2 HCl]
ED50 [1, 3]: 20 mg/kg | ED50 [1, 4]: 25 mg/kg

Cc1ccc(C)c(C(=O)c2cccnc2SCCN)c1 [D, 2-[(2-aminoethyl)-thio]-3-(2,5-dimethylbenzoyl)pyridine.HCl]
ED50 [1, 3]: 10 mg/kg | ED50 [1, 4]: 10 mg/kg

CN1CCN(CC(=O)N2c3ccccc3C(=O)Nc3cccnc32)CC1 [Pirenzepine, reference compound]
Antral ulcer, ulceration index (Antral ulcer; [6]): 12.0 mm^2 /stomach | Antral ulcer, rats having no ulcer (Antral ulcer; [7]): 5 | Intestinal ulcer, tensile strength 24 hours after indomethacin treatment (Intestinal ulcer; [6]): 152 ± 8 mmHg

CN/C(=N/CCSCc1nc[nH]c1C)NC#N [cimetidine, reference compound]
Haemorrhagic injury ([1]; 25 mg./kg. p.o.): 82 ± 21 mm | Haemorrhagic injury inhibition ([1]; 25 mg./kg. p.o.): 2% | Oedema ([1]; 25 mg./kg. p.o., N 8): 441 ± 82 mg | Haemorrhagic injury ([1]; 100 mg./kg. p.o.): 42 ± 13 mm | Haemorrhagic injury inhibition ([1]; 100 mg./kg. p.o.): 46% | Oedema inhibition ([1]; 100 mg./kg. p.o.): 21% | Oedema ([1]; 100 mg./kg. p.o., N 8): 301 ± 42 mg | Antral ulcer, ulceration index (Antral ulcer; [8]): 14.7 mm^2 /stomach | Antral ulcer, rats having no ulcer (Antral ulcer; indomethacin 15 mg./kg. p.o. with 50 mg./kg. p.o. test compound, N 10): 2 | Intestinal ulcer, tensile strength 24 hours after indomethacin treatment (Intestinal ulcer; [8]): 161 ± 8 mmHg
